According to US10807994B2, “Heterocyclic compounds and uses thereof” (NUVATION BIO INC., priority 2017, dated 2020):
Structures can show the parent of a compound that is named as a salt. Where two headings read alike, the source gives them in different places.

Key:
[1] = tested on: A549 cells; assay: Cytotoxicity assay (resazurin), A549 cells, 96 hr; type: cell-based; conditions: read-out: Cell Viability A549 IC50
Procedure: (§1) A549 (CCL-185; ATCC) and A427 (HTB-53; ATCC), both lung epithelial cell lines were seeded in their respective medium (DMEM/MEM, 10569044/41090101; Gibco) at a cell count of 1500 cells per 100 μL per well in a 96 well edge plate (167425; ThermoFisher). Cells were allowed to grow at 37° C. for 24 hr in 5% CO2 environment (culture conditions) in a Nuaire incubator (humidified). Serially diluted test compounds (100 μL) within the desired testing concentration ranges were added to the culture plate were further incubated in culture conditions for 72 hr and 96 hr for A427 and A549 respectively. The experiment was terminated at the designated incubation time by replacing the medium with 100 μL of 1 mM of resazurin (R7017; Sigma) prepared in respective culture medium, and the plates were further incubated in culture conditions for 4-6 hr. Fluorescence was recorded using a multimodal plate reader (Biotek Synergy Neo) at an excitation wavelength of 535 nm and emission wavelength of 590 nm to obtain relative fluorescence units. Data analysis was done by subtracting the background fluorescence (only medium blank) value from each reading and then normalizing with the vehicle control (DMSO treated cells) to obtain percent survival/proliferation. Percent survival was then subtracted by 100 to get the percent inhibition of proliferation which was used to calculate IC50 values. Potency of compounds in other cell lines (As-Pc-1, Panc-10.05, MDAMB231, A172) was determined in an analogous manner.

[2] = molecular target: WEE1 kinase enzyme (Homo sapiens (Human), UniProt P30291); assay: WEE1 IC50 determination, LanthaScreen Terbium labeled TR-FRET kinase assay; type: biochemical; conditions: WEE1 enzyme 1 nM
Procedure: IC50 values of compounds against WEE1 kinase enzyme were determined by LanthaScreen™ Terbium Labeled TR-FRET assay. Kinase assays were performed in 1× kinase buffer (# PV6135, Invitrogen, Life Technologies Grand Island, N.Y.) where total reaction volume was 10 μl in low-volume 384-well plates (#4511, Corning). Serially diluted compounds (3-fold) were incubated with WEE1 Enzyme (1 nM) (# PR7373A, Invitrogen, Life Technologies Grand Island, N.Y.) for 10 min, following which a mixture of ATP […] (# A1852, Sigma, St-Louis, Mo.) and fluorescent-PolyGT substrate (200 nM) (# PV3610, Invitrogen, Life Technologies Grand Island, N.Y.) was added and incubated in dark at room temperature for 1 h. After 1 h, 10 μl stop solution containing Terbium labeled antibody (4 nM) (# PV3529, Invitrogen, Life Technologies Grand Island, N.Y.) and EDTA (# E5134, Sigma, St-Louis, Mo.) (20 mM) in TR-FRET dilution buffer (# PV3574, Invitrogen, Life Technologies Grand Island, N.Y.) was added. Readings were taken in a Synergy Neo Plate reader (BioTek, Winooski) at single excitation of 340 nm and Dual emission at 495 nm and 520 nm respectively.
The % activity of test samples was calculated as (Sample−Min)*100/(Max−Min). [Max: DMSO control, complete reaction with enzyme & DMSO and Min: No enzyme & DMSO]. Percent inhibition (100-% activity) was fitted to the “four-parameter logistic model” in XLfit for determination of IC50 values.

[3] = tested on: A427 cells; assay: Cytotoxicity assay (resazurin), A427 cells, 72 hr; type: cell-based
Procedure: as §1

[4] = Homo sapiens, A-427, read-out: Cell Viability A427 IC50

Sequence of WEE1 kinase enzyme (P30291 whole entry): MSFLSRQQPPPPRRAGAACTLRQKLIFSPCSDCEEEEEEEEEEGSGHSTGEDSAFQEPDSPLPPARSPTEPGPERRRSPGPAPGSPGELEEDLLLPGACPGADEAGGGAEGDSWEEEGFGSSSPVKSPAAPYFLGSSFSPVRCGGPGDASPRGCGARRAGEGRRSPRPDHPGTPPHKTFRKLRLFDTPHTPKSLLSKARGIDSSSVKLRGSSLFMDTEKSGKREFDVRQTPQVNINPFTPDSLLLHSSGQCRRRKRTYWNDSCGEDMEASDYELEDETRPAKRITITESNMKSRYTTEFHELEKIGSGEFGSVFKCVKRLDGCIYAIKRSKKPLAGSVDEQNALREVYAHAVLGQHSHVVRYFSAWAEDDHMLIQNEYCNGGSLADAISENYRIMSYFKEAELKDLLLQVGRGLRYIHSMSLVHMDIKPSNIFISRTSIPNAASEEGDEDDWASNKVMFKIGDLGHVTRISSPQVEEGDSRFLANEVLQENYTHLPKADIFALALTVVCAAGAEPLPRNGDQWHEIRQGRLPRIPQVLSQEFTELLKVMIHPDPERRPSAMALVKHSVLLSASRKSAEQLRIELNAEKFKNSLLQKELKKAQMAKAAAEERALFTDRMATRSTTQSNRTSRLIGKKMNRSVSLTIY

Compound	IC50 [2] [nM]	IC50 ([1]; Homo sapiens) [nM]	IC50 [3, 4] [nM]	IC50 [1] [nM]	IC50 ([3]; read-out: Cell Viability A427 IC50) [nM]
Cc1cccc(Cl)c1N1COc2nc(Nc3ccc(N4CCNCC4)cc3)ncc2C1=O [Example 1.30, 3-(2-chloro-6-methylphenyl)-7-((4-(piperazin-1-yl)phenyl)amino)-2,3-dihydro-4H-pyrimido[5,4-e][1,3]oxazin-4-one]	325	8650	–	–	–
Cc1cc(Nc2ncc3c(n2)OCN(c2c(Cl)cccc2Cl)C3=O)ccc1N1CCNCC1 [Example 1.33, 3-(2,6-dichlorophenyl)-7-(3-methyl-4-(piperazin-1-yl)phenylamino)-2H-pyrimido[5,4-e][1,3]oxazin-4(3H)-one]	50	2690	2820	–	–
O=C1c2cnc(Nc3ccc(C4CCNCC4)c(CO)c3)nc2OCN1c1c(Cl)cccc1Cl [Example 1.34, 3-(2,6-dichlorophenyl)-7-(3-(hydroxymethyl)-4-(piperidin-4-yl)phenylamino)-2H-pyrimido[5,4-e][1,3]oxazin-4(3H)-one]	14	–	–	21000	4810
O=C1c2cnc(Nc3ccc(N4CCNCC4)nc3)nc2OCN1c1c(Cl)cccc1Cl [Example 1.36, 3-(2,6-dichlorophenyl)-7-((6-(piperazin-1-yl)pyridin-3-yl)amino)-2,3-dihydro-4H-pyrimido[5,4-e][1,3]oxazin-4-one]	104	8120	10400	–	–
O=C1c2cnc(Nc3ccc(N4CCNC[C@@H]4CO)cc3)nc2OCN1c1c(Cl)cccc1Cl [Example 1.37, (R)-3-(2,6-dichlorophenyl)-7-(4-(2-(hydroxymethyl)piperazin-1-yl)phenylamino)-2H-pyrimido[5,4-e][1,3]oxazin-4(3H)-one]	113	9820	–	–	–
O=C1c2cnc(Nc3ccc(N4CCNC[C@H]4CO)cc3)nc2OCN1c1c(Cl)cccc1Cl [Example 1.38, (S)-3-(2,6-dichlorophenyl)-7-(4-(2-(hydroxymethyl)piperazin-1-yl)phenylamino)-2H-pyrimido[5,4-e][1,3]oxazin-4(3H)-one]	176	9150	–	–	–
O=C1c2cnc(Nc3ccc(N4CCNCC4)cc3)nc2OCN1c1c(F)cccc1F [Example 1.39, 3-(2,6-difluorophenyl)-7-(4-(piperazin-1-yl)phenylamino)-2H-pyrimido[5,4-e][1,3]oxazin-4(3H)-one]	540	10400	–	–	–
O=C1c2cnc(Nc3ccc(N4CCNCC4)c(Cl)c3)nc2OCN1c1c(Cl)cccc1Cl [Example 1.40, 7-(3-chloro-4-(piperazin-1-yl)phenylamino)-3-(2,6-dichlorophenyl)-2H-pyrimido[5,4-e][1,3]oxazin-4(3H)-one]	20	2730	2650	–	–
CN1CCC(c2ccc(Nc3ncc4c(n3)OCN(c3c(Cl)cccc3Cl)C4=O)cc2CO)CC1 [Example 1.42, 3-(2,6-dichlorophenyl)-7-(3-(hydroxymethyl)-4-(1-methylpiperidin-4-yl)phenylamino)-2H-pyrimido[5,4-e][1,3]oxazin-4(3H)-one]	25	5600	3200	–	–
CN1CCN(c2ccc(Nc3ncc4c(n3)OCN(c3c(Cl)cncc3Cl)C4=O)cc2)CC1 [Example 1.43, 3-(3,5-dichloropyridin-4-yl)-7-(4-(4-methylpiperazin-1-yl)phenylamino)-2H-pyrimido[5,4-e][1,3]oxazin-4(3H)-one]	479	22100	–	–	–
O=C1c2cnc(Nc3ccc4c(c3)CCNC4)nc2OCN1c1c(Cl)cccc1Cl [Example 1.44, 3-(2,6-dichlorophenyl)-7-(1,2,3,4-tetrahydroisoquinolin-6-ylamino)-2H-pyrimido[5,4-e][1,3]oxazin-4(3H)-one]	23	5790	–	–	–
O=C1c2cnc(Nc3ccc(N4CCC(O)CC4)cc3)nc2OCN1c1c(Cl)cccc1Cl [Example 1.45, 3-(2,6-dichlorophenyl)-7-(4-(4-hydroxypiperidin-1-yl)phenylamino)-2H-pyrimido[5,4-e][1,3]oxazin-4(3H)-one]	288	> 30000	–	–	–
NCC(=O)N1CCN(c2ccc(Nc3ncc4c(n3)OCN(c3c(Cl)cccc3Cl)C4=O)cc2)CC1 [Example 1.46, 7-(4-(4-(2-aminoacetyl)piperazin-1-yl)phenylamino)-3-(2,6-dichlorophenyl)-2H-pyrimido[5,4-e][1,3]oxazin-4(3H)-one]	53	9860	–	–	–
C[C@@H]1CN[C@@H](C)CN1c1ccc(Nc2ncc3c(n2)OCN(c2c(Cl)cccc2Cl)C3=O)cc1 [Example 1.47, 3-(2,6-dichlorophenyl)-7-(4-((2R,5S)-2,5-dimethylpiperazin-1-yl)phenylamino)-2H-pyrimido[5,4-e][1,3]oxazin-4(3H)-one hydrochloride]	70	4100	7100	–	–
C[C@@H]1CNCCN1c1ccc(Nc2ncc3c(n2)OCN(c2c(Cl)cccc2Cl)C3=O)cc1 [Example 1.49, (R)-3-(2,6-dichlorophenyl)-7-(4-(2-methylpiperazin-1-yl)phenylamino)-2H-pyrimido[5,4-e][1,3]oxazin-4(3H)-one]	41	4390	5420	–	–
COc1cc(Nc2ncc3c(n2)SCN(c2c(Cl)cccc2Cl)C3=O)ccc1N1CCC(N(C)C)CC1 [Example 1.242]	331	–	1620	–	–
CN(C)C1CCN(c2ccc(Nc3ncc4c(n3)SCN(c3c(F)cccc3Cl)C4=O)cc2Cl)CC1 [Example 1.245]	297	–	1140	–	–
CC1(C)NCCc2cc(Nc3ncc4c(n3)SCN(c3c(Cl)cccc3Cl)C4=O)ccc21 [Example 1.246]	61	–	2440	–	–

More lines, main results first:

IC50 [2] [nM]	Compound	IC50 ([1]; Homo sapiens) [nM]	IC50 [3, 4] [nM]	IC50 [1] [nM]	IC50 ([3]; read-out: Cell Viability A427 IC50) [nM]
56	CN1CCN(c2ccc(Nc3ncc4c(n3)OCN(c3c(Cl)cccc3Cl)C4=O)cc2)CC1 [Example 1.1]	9700	4470	–	–
9	CN1Cc2cc(Nc3ncc4c(n3)OCN(c3c(Cl)cccc3Cl)C4=O)ccc2C(C)(C)C1 [Example 1.4]	5740	–	–	–
212	O=C1c2cnc(Nc3ccc(N4CCNCC4)c(F)c3)nc2OCN1c1c(Cl)cccc1Cl [Example 1.29]	8880	–	–	–
366	CN1CCN(c2ccc(Nc3cc4c(cn3)C(=O)N(c3c(Cl)cccc3Cl)CO4)cc2)CC1 [Example 1.32, 3-(2,6-dichlorophenyl)-7-(4-(4-methylpiperazin-1-yl)phenylamino)-2H-pyrido[3,4-e][1,3]oxazin-4(3H)-one]	–	–	7430	–
35	CN1CCc2ccc(Nc3ncc4c(n3)OCN(c3c(Cl)cccc3Cl)C4=O)cc2C1 [Example 1.35, 3-(2,6-dichlorophenyl)-7-(2-methyl-1,2,3,4-tetrahydroisoquinolin-7-ylamino)-2H-pyrimido[5,4-e][1,3]oxazin-4(3H)-one]	11100	–	–	–
791	O=C1CNCCN1c1ccc(Nc2ncc3c(n2)OCN(c2c(Cl)cccc2Cl)C3=O)cc1 [Example 1.41, 3-(2,6-dichlorophenyl)-7-((4-(2-oxopiperazin-1-yl)phenyl)amino)-2,3-dihydro-4H-pyrimido[5,4-e][1,3]oxazin-4-one]	> 30000	–	–	–
103	CNCCOc1ccc(Nc2ncc3c(n2)OCN(c2c(Cl)cccc2Cl)C3=O)cc1 [Example 1.48, 3-(2,6-dichlorophenyl)-7-(4-(2-(methylamino)ethoxy)phenylamino)-2H-pyrimido[5,4-e][1,3]oxazin-4(3H)-one]	8380	11100	–	–
948	CC1CNCCN1c1ccc(Nc2ncc3c(n2)SCN(c2c(Cl)cccc2Cl)C3=O)cc1Cl (stereo not drawn) [Example 1.243]	–	625	–	–
351	CC1CN(c2ccc(Nc3ncc4c(n3)SCN(c3c(Cl)cccc3Cl)C4=O)cc2Cl)CCN1 (stereo not drawn) [Example 1.244]	–	510	–	–
